This note sets out measurements from US20050197350A1, “Novel quinoline, tetrahydroquinazoline, and pyrimidine derivatives and methods of treatment related to the use thereof” (TAISHO PHARMACEUTICAL CO., LTD., priority 2003, published 2005).

One assay deals with MCH receptors. The assay is described as follows: MCH receptor activity class (method not given).
Conditions: not given
Turning to `Cc1cc(N[C@H]2CC[C@@H](NC(=O)c3cc(C(F)(F)F)cc(C(F)(F)F)c3)CC2)nc2ccccc12` [Example 2548, N-{cis-4-[(4-methylquinolin-2-yl)amino]cyclohexyl}-3,5-bis(trifluoromethyl)benzamide], the class amounted to 1.

The same assay, now with this note: MCH receptor activity class 1-3 (percent of control at 10^-7 M or IC50).
Regarding `CN(C)c1cc(N[C@H]2CC[C@@H](CNC(=O)Nc3ccc(C#N)cc3)CC2)nc2ccccc12` [compound 2388], the class is 3 (Class 3 The value of percent of control at 10^−7 M was more than 60% or the value of IC50 was more than 200 nM.).

Regarding `CN(C)c1cc(N[C@H]2CC[C@@H](NC(=S)Nc3ccc(Cl)cc3C(F)(F)F)CC2)nc2ccccc12` [compound 2294], the class is on record as 3 (Class 3 The value of percent of control at 10^−7 M was more than 60% or the value of IC50 was more than 200 nM.). Consider `CN(C)c1cc(N[C@H]2CC[C@@H](CNC(=O)Nc3ccc(F)c(Cl)c3)CC2)nc2ccccc12` [compound 2404], for which the class is given as 3 (Class 3 The value of percent of control at 10^−7 M was more than 60% or the value of IC50 was more than 200 nM.).

The assay is the same for the next values; noted with them: MCH receptor; class by percent of control at 10^-7 M or IC50.
As to `COc1ccc(Cl)cc1NC(=S)N[C@H]1CC[C@@H](Nc2nc3c(c(N(C)C)n2)CCCC3)CC1` [compound 2023], the class is 3 (Class 3 The value of percent of control at 10^−7 M was more than 60% or the value of IC50 was more than 200 nM.). Same read-out and setting: as for `CN(C)c1nc(N[C@H]2CC[C@@H](NC(=S)NC(c3ccccc3)c3ccccc3)CC2)nc2c1CCCC2` [compound 2025], the figure is 3 (Class 3 The value of percent of control at 10^−7 M was more than 60% or the value of IC50 was more than 200 nM.). Still for that read-out and setting: as for `CN(C)c1cc(N[C@H]2CC[C@@H](NC(=O)c3ccc(SC(F)(F)F)cc3)CC2)nc2ccccc12` [compound 131], the figure is 3 (Class 3 The value of percent of control at 10^−7 M was more than 60% or the value of IC50 was more than 200 nM.); as for `Cc1ccc(NC(=S)N[C@H]2CC[C@@H](Nc3nc4c(c(N(C)C)n3)CCCC4)CC2)cc1C` [compound 2063], 3 (Class 3 The value of percent of control at 10^−7 M was more than 60% or the value of IC50 was more than 200 nM.).

Staying with this assay, now noted: activity class 1-3: percent of control at 10^-7 M or IC50.
`CN(C)c1cc(NC2CCC(NC(=O)OCc3ccc([N+](=O)[O-])cc3)CC2)nc2ccccc12` (stereo not drawn) [compound 1548]: the class is reported as 3 (Class 3 The value of percent of control at 10^−7 M was more than 60% or the value of IC50 was more than 200 nM.). On the same count and under the same terms, as for `C=C(C)c1cccc(C(C)(C)NC(=O)N[C@H]2CC[C@@H](Nc3nc4c(c(N(C)C)n3)CCCC4)CC2)c1` [compound 1698], the figure is 3 (Class 3 The value of percent of control at 10^−7 M was more than 60% or the value of IC50 was more than 200 nM.). For the compound `CN(C)c1nc(N[C@H]2CC[C@@H](CNC(=O)OCCOCc3ccccc3)CC2)nc2c1CCCC2` [compound 1599], the class is listed as 3 (Class 3 The value of percent of control at 10^−7 M was more than 60% or the value of IC50 was more than 200 nM.). The same measure, in the same setting: the value for `COCCOC(=O)NC[C@H]1CC[C@@H](Nc2cc(N(C)C)c3ccccc3n2)CC1` [compound 1565] was 3 (Class 3 The value of percent of control at 10^−7 M was more than 60% or the value of IC50 was more than 200 nM.); that for `Cc1ccc(OC(=O)N[C@H]2CC[C@@H](Nc3cc(N(C)C)c4ccccc4n3)CC2)cc1` [compound 1554] was 3 (Class 3 The value of percent of control at 10^−7 M was more than 60% or the value of IC50 was more than 200 nM.).

The same assay, now with this note: activity class per percent of control at 10^-7 M or IC50.
As for `COc1cc(CNC[C@H]2CC[C@@H](Nc3cc(N(C)C)c4ccccc4n3)CC2)cc(OC)c1O` [compound 1133], the class is listed as 3 (Class 3 The value of percent of control at 10^−7 M was more than 60% or the value of IC50 was more than 200 nM.).

Regarding `CN(C)c1nc(N[C@H]2CC[C@@H](NC(=O)c3ccccc3C(=O)c3cccc4ccccc34)CC2)nc2c1CCCC2` [compound 1025], the class was 3 (Class 3 The value of percent of control at 10^−7 M was more than 60% or the value of IC50 was more than 200 nM.).

The same assay, now with this note: class by percent of control at 10^-7 M or IC50.
Consider `CN(C)c1ccnc(N[C@H]2CC[C@@H](NC(=O)C(C)(C)Oc3ccc(Cl)cc3)CC2)n1` [compound 357, 2-(4-chlorophenoxy)-N-(cis-4-{[4-(dimethylamino)pyrimidin-2-yl]amino}cyclohexyl)-2-methylpropanamide], for which the class is listed as 2 (Class 2: The value of percent of control at 10^−7 M was from 40% to 60% or the value of IC′50 was from 50 nM to 200 nM.). Same read-out and setting: as for `Cc1cc(CNC[C@H]2CC[C@@H](Nc3nccc(N(C)C)n3)CC2)ccc1O` [compound 1315], the figure is 3 (Class 3 The value of percent of control at 10^−7 M was more than 60% or the value of IC50 was more than 200 nM.); as for `Cc1ccccc1CNC[C@H]1CC[C@@H](Nc2nccc(N(C)C)n2)CC1` [compound 1306], 3 (Class 3 The value of percent of control at 10^−7 M was more than 60% or the value of IC50 was more than 200 nM.). Regarding `Cc1c(C(=O)N[C@H]2CC[C@@H](Nc3cc(N(C)C)c4ccccc4n3)CC2)cc(-c2ccccc2)n1CCSCc1c(F)cccc1Cl` [compound 752], the class is on record as 3 (Class 3 The value of percent of control at 10^−7 M was more than 60% or the value of IC50 was more than 200 nM.). On the same count and under the same terms, the value for `Cc1cccc(C)c1NC(=O)N[C@H]1CC[C@@H](Nc2nccc(N(C)C)n2)CC1` [compound 2180] was 3 (Class 3 The value of percent of control at 10^−7 M was more than 60% or the value of IC50 was more than 200 nM.); that for `Cc1ccc(CNC(=O)N[C@H]2CC[C@@H](Nc3nc4c(c(N(C)C)n3)CCCC4)CC2)cc1` [compound 1895] was 3 (Class 3 The value of percent of control at 10^−7 M was more than 60% or the value of IC50 was more than 200 nM.); that for `Cc1ccccc1C(=O)NC[C@H]1CC[C@@H](Nc2cc(N(C)C)c3ccccc3n2)CC1` [compound 223] was 3 (Class 3 The value of percent of control at 10^−7 M was more than 60% or the value of IC50 was more than 200 nM.).

For the compound `COc1ccc(CSC2(CC(=O)N[C@H]3CC[C@@H](Nc4cc(N(C)C)c5ccccc5n4)CC3)CCCCC2)cc1` [compound 714], the class is recorded as 3 (Class 3 The value of percent of control at 10^−7 M was more than 60% or the value of IC50 was more than 200 nM.).

As to `Cc1ccc(S(=O)(=O)N[C@H](CN[C@H]2CC[C@@H](Nc3cc(N(C)C)c4ccccc4n3)CC2)Cc2ccccc2)cc1` [compound 1456], the class is 3 (Class 3 The value of percent of control at 10^−7 M was more than 60% or the value of IC50 was more than 200 nM.). The same measure, in the same setting: the value for `CN(C)c1cc(N[C@H]2CC[C@@H](NC(=O)C(CC(=O)c3ccc(Br)cc3)c3c[nH]c4ccccc34)CC2)nc2ccccc12` (relative stereo) [compound 717] was 3 (Class 3 The value of percent of control at 10^−7 M was more than 60% or the value of IC50 was more than 200 nM.). Same read-out and setting: the value for `Cc1cc(C)c(CNC[C@H]2CC[C@@H](Nc3cc(N(C)C)c4ccccc4n3)CC2)c(C)c1` [compound 1181] was 3 (Class 3 The value of percent of control at 10^−7 M was more than 60% or the value of IC50 was more than 200 nM.); that for `C[C@H](C(=O)N[C@H]1CC[C@@H](Nc2nccc(N(C)C)n2)CC1)c1cccc(C(=O)c2ccccc2)c1` [compound 878, (2S)-2-(3-benzoylphenyl)-N-(cis-4-{[4-(dimethylamino)pyrimidin-2-yl]amino}cyclohexyl)propanamide] was 2 (Class 2: The value of percent of control at 10^−7 M was from 40% to 60% or the value of IC′50 was from 50 nM to 200 nM.); that for `CN(C)c1nc(N[C@H]2CC[C@@H](NCc3c[nH]nc3-c3ccc(F)cc3)CC2)nc2c1CCCC2` [compound 1359] was 1 (Class 1: The value of percent of control at 10^−7 M was less than 40% or the value of IC50 was less than 50 nM.). The same measure, in the same setting: as for `CN(C)c1nc(N[C@H]2CC[C@@H](NCc3c[nH]nc3-c3ccc(C(F)(F)F)cc3)CC2)nc2c1CCCC2` [compound 1339], the figure is 3 (Class 3 The value of percent of control at 10^−7 M was more than 60% or the value of IC50 was more than 200 nM.); as for `CN(C)c1ccnc(N[C@H]2CC[C@@H](NC(=O)/C=C/c3ccccc3)CC2)n1` [compound 244], 3 (Class 3 The value of percent of control at 10^−7 M was more than 60% or the value of IC50 was more than 200 nM.).

The assay is the same for the next values; noted with them: class by percent of control at 10^−7 M or IC50.
Consider `COc1cccc([C@@H](C)NC(=O)[C@H]2CC[C@@H](Nc3nc(C)cc(N(C)C)n3)CC2)c1` [compound 2796, cis-4-{[4-(dimethylamino)-6-methylpyrimidin-2-yl]amino}-N-[(1R)-1-(3-methoxyphenyl)ethyl]cyclohexanecarboxamide], for which the class is recorded as 2 (Class 2: The value of percent of control at 10^−7 M was from 40% to 60% or the value of IC′50 was from 50 nM to 200 nM.). The same measure, in the same setting: as for `Cc1cc(N(C)C)nc(N[C@H]2CC[C@@H](C(=O)NCc3cc(F)ccc3F)CC2)n1` [compound 2819, cis-N-(2,5-difluorobenzyl)-4-{[4-(dimethylamino)-6-methylpyrimidin-2-yl]amino}cyclohexanecarboxamide], the figure is 1 (Class 1: The value of percent of control at 10^−7 M was less than 40% or the value of IC50 was less than 50 nM.). On the same count and under the same terms, as for `Cc1cnc(N[C@H]2CC[C@@H](NC(=O)C(O)c3ccc(Cl)cc3)CC2)nc1N(C)C` (relative stereo) [compound 2876, 2-(4-chlorophenyl)-N-(cis-4-{[4-(dimethylamino)-5-methylpyrimidin-2-yl]amino}cyclohexyl)-2-hydroxyacetamide], the figure is 1 (Class 1: The value of percent of control at 10^−7 M was less than 40% or the value of IC50 was less than 50 nM.). Same read-out and setting: the value for `COc1cc(OC)cc(C(=O)N[C@H]2CC[C@@H](CNc3nc(C)cc(N(C)C)n3)CC2)c1` [compound 2736] was 3 (Class 3 The value of percent of control at 10^−7 M was more than 60% or the value of IC50 was more than 200 nM.); that for `Cc1cc(N(C)C)nc(N[C@H]2CC[C@@H](CNC(=O)c3ccc(Cl)c(Cl)c3)CC2)n1` [compound 2767] was 2 (Class 2: The value of percent of control at 10^−7 M was from 40% to 60% or the value of IC′50 was from 50 nM to 200 nM.). For the compound `Cc1cnc(N[C@H]2CC[C@@H](CNC(=O)c3ccc(C(F)(F)F)cc3)CC2)nc1N(C)C` [compound 2698], the class was 3 (Class 3 The value of percent of control at 10^−7 M was more than 60% or the value of IC50 was more than 200 nM.).
